Experimental data as given in patent US20240002416A1 (Rheinische-Friedrich-Wilhelms-Universität Bonn, priority 2020, published 2024).

What was measured:
[1] = target: T1, human MRGPRX4-83L (Homo sapiens, UniProt Q96LA9); experiment: β-arrestin assay (CHO β-arrestin ARMS1-ProLink 2 human MRGPRX4 83L); assay type: cell-based; details: for IC50: inhibition of the effect of 2.6 μM B-16; for EC50: β-arrestin recruitment, CHO cells, MRGPRX4-83L, read-out: EC50 ± SEM; for Emax: read-out: Emax
T1 construct: host or cells: CHO β-arrestin cells
Method: (§1) For β-arrestin recruitment assays, recombinant Chinese hamster ovary (CHO) cells expressing the human MRGPRX4 were used (DiscoverX/Eurofins) which allowed to measure β-galactosidase complementation upon β-arrestin recruitment. For calcium mobilization assays, recombinant astrocytes expressing MRGPX4-83L, or LN229 glioblastoma cells natively expressing the MRGPRX4-83S, were used.
(§2) The assays were performed as previously described for other rhodopsin-like GPCRs (Müller, C.E.; 8-Benzamidochromen-4-one-2-carboxylic acids: potent and selective agonists for the orphan G protein-coupled receptor GPR35. J. Med. Chem. 2013, 56:5182-97; Müller, C.E. Molecular Recognition of Agonists and Antagonists by the Nucleotide-Activated G Protein-Coupled P2Y2 Receptor. J. Med. Chem. 2017, 60:8425-8440).

[2] = target: T2, MRGPRX4-83S (Homo sapiens, UniProt Q96LA9, L83S); experiment: β-arrestin assay (CHO β-arrestin human MRGPRX4-83S); assay type: cell-based; design: host or cells: CHO β-arrestin cells; details: for Emax: efficacy based on 100 nM B-16 (set as 100%), read-out: Emax; for EC50: β-arrestin recruitment, CHO cells, MRGPRX4-83S, read-out: EC50 ± SEM
Method: as §1, §2

[3] = target: T2, MRGPRX4-83S; experiment: Calcium assay (human glioblastoma LN229 cells expressing the MRGPRX4-83S); assay type: cell-based; design: LN229 glioblastoma cells natively expressing the MRGPRX4-83S; endogenous in cells; host or cells: LN229 human glioblastoma cells; details: for Emax: LN-229, efficacy based on 30 μM H-1 (set as 100%), read-out: Emax; for EC50: calcium mobilization, LN229 cells, MRGPRX4-83S, read-out: EC50 ± SEM
Method: as §1, §2

[4] = target: T1, human MRGPRX4-83L; experiment: Calcium assay (human MRGPRX4 83L), recombinant astrocytes; assay type: cell-based; details: for EC50: calcium mobilization, MRGPRX4-83L, read-out: EC50 ± SEM; for Emax: read-out: Emax
Method: as §1, §2

[5] = Table 1, means of 3-4 experiments
[6] = Table 1, efficacy based on maximal effect of 1 μM B-16 (set as 100%)
[7] = Table 1, efficacy based on maximal effect of 100 nM B-16 (set as 100%)

T1 sequence (Q96LA9 whole entry): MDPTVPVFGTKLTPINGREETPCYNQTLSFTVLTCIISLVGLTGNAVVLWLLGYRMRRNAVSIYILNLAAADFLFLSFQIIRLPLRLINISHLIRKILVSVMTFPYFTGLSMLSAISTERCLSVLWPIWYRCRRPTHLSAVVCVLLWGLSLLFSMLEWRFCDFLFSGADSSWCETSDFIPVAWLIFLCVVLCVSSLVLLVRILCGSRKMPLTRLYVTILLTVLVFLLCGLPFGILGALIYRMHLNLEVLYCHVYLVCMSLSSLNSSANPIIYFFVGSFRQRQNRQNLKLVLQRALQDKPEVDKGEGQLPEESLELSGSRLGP
T2 sequence (Q96LA9 whole entry L83S): as the sequence (Q96LA9 whole entry) above, with L83S counted along it

Structure (SMILES) | EC50 [1, 5] [µM] | Emax ([2]; Table 2) [%] | EC50 ([2]; Table 2) [µM] | Emax ([3]; Table 2) [%] | EC50 ([3]; Table 2) [µM] | EC50 ([4]; Table 1) [µM] | Emax [4, 6] [%] | Emax [1, 7] [%] | further results
CCn1c(=O)c2[nH]c(CCc3cccc(OC)c3)nc2n(CCCCP(=O)(O)O)c1=O [B-12, (4-(1-Ethyl-8-(3-methoxyphenethyl)-2,6-dioxo-1,2,6,7-tetrahydro-3H-purin-3-yl)butyl)phosphonic acid] | > 10 | 102 | 1.19 ± 0.05 | 94 | 0.214 ± 0.051 | 3.8 ± 0.19 | 104 | – | value in brackets beside IC50 >10 ([1]; Table 1, bracketed value ± spread in IC50 column, not defined, inhibition of 2.6 μM B-16): −27 ± 9; IC50 ([1]; Table 1): > 10 µM
COc1cccc(CCc2nc3c([nH]2)c(=O)n(CC2CCC2)c(=O)n3CCCCP(=O)(O)O)c1 [B-13, (4-(1-(Cyclobutylmethyl)-8-(3-methoxyphenethyl)-2,6-dioxo-1,2,6,7-tetrahydro-3H-purin-3-yl)butyl)phosphonic acid] | 48.3 ± 14.1 | 93 | 0.0689 ± 0.017 | 91 | 0.0599 ± 0.0107 | 1.6 ± 0.46 | 94 | 96 | –
C#CCn1c(=O)c2c(nc(Cc3cccc4ccccc34)n2CC)n(CCCCP(=O)(O)O)c1=O [B-58, (4-(7-Ethyl-8-(naphthalen-1-ylmethyl)-2,6-dioxo-1-(prop-2-yn-1-yl)-1,2,6,7-tetrahydro-3H-purin-3-yl)butyl)phosphonic acid] | – | – | – | – | – | – | – | – | melting point: 138 to 140 °C
C#CCn1c(=O)c2c(nc(Cc3ccc4ccccc4c3)n2CC)n(CCCCP(=O)(O)O)c1=O [B-58] | – | – | – | – | – | – | – | – | EC50 ([1]; Table 4): > 10 µM; EC50 ([2]; Table 3): > 100 µM; IC50 [3]: 0.0317 ± 0.0191 µM; EC50 ([3]; Table 3): > 10 µM; EC50 ([4]; Table 4): > 10 µM
C#CCn1c(=O)c2c(nc(CCc3ccccc3Br)n2C)n(CCCCP(=O)(O)OCC)c1=O [D-1, Ethyl hydrogen (4-(8-(2-bromophenethyl)-7-methyl-2,6-dioxo-1-(prop-2-yn-1-yl)-1,2,6,7-tetrahydro-3H-purin-3-yl)butyl)phosphonate] | 0.395 ± 0.126 | 120 | 0.114 ± 0.023 | 105 | 0.134 ± 0.012 | 0.0555 ± 0.009 | 115 | 108 | –
CCCn1c(=O)c2c(nc(CCc3cccc(OC)c3)n2C)n(CCCOP(=O)(O)O)c1=O [H-2, 3-(8-(3-Methoxyphenethyl)-7-methyl-2,6-dioxo-1-propyl-1,2,6,7-tetrahydro-3H-purin-3-yl)propyl dihydrogen phosphate, reference compound] | > 10 | – | 0.674 ± 0.05 | 88 | 0.801 ± 0.233 | 2.5 ± 0.73 | 113 | – | IC50 ([1]; Table 1): > 10 µM
C#CCn1c(=O)c2[nH]c(/C=C/c3cccc(OC)c3)nc2n(CCCOP(=O)(O)O)c1=O [H-3, (E)-3-(8-(3-Methoxystyryl)-2,6-dioxo-1-(prop-2-yn-1-yl)-1,2,6,7-tetrahydro-3H-purin-3-yl)propyl dihydrogen phosphate, reference compound] | > 10 | – | > 10 | – | > 10 | > 10 | – | – | IC50 ([1]; Table 1): > 10 µM; IC50 [4]: > 10 µM
C#CCn1c(=O)c2[nH]c(/C=C/c3cccc(OC)c3)nc2n(CCCCP(=O)(O)O)c1=O [J-1, (E)-(4-(8-(3-Methoxystyryl)-2,6-dioxo-1-(prop-2-yn-1-yl)-1,2,6,7-tetrahydro-3H-purin-3-yl)butyl)phosphonic acid] | > 10 | 65 | 0.2 ± 0.059 | – | 0.0116 ± 0.0013 | > 10 | – | – | –
CCCn1c(=O)c2[nH]c(C3CCCC3)nc2n(CCCCP(=O)(O)O)c1=O [J-2, (4-(8-Cyclopentyl-2,6-dioxo-1-propyl-1,2,6,7-tetrahydro-3H-purin-3-yl)butyl)phosphonic acid] | > 10 | 76 | 6.36 ± 1.63 | – | > 10 | > 50 | – | – | IC50 ([1]; Table 1): > 10 µM; IC50 [4]: > 50 µM
CCCn1c(=O)c2[nH]c(-c3ccccc3)nc2n(CCCCP(=O)(O)O)c1=O [J-3, (4-(2,6-Dioxo-8-phenyl-1-propyl-1,2,6,7-tetrahydro-3H-purin-3-yl)butyl)phosphonic acid] | > 10 | – | > 10 | – | > 10 | > 10 | – | – | IC50 ([1]; Table 1): > 10 µM; IC50 [2]: > 10 µM; IC50 [4]: > 10 µM

Second part, led by results:

EC50 [1, 5] [µM] | Emax ([2]; Table 2) [%] | EC50 ([2]; Table 2) [µM] | Emax ([3]; Table 2) [%] | EC50 ([3]; Table 2) [µM] | EC50 ([4]; Table 1) [µM] | Emax [4, 6] [%] | Emax [1, 7] [%] | Structure (SMILES) | further results
6.28 ± 1.38 | 140 | 0.03 ± 0.0058 | 132 | 0.0192 ± 0.0035 | 0.333 ± 0.007 | 113 | 141 | C#CCn1c(=O)c2c(nc(CCc3cccc(OC)c3)n2C)n(CCCCP(=O)(O)O)c1=O [B-15, (4-(8-(3-Methoxyphenethyl)-7-methyl-2,6-dioxo-1-(prop-2-yn-1-yl)-1,2,6,7-tetrahydro-3H-purin-3-yl)butyl)phosphonic acid] | –
0.37 ± 0.05 | 100 | 0.00228 ± 0.00016 | 137 | 0.00317 ± 0.0006 | 0.0324 ± 0.0056 | – | – | C#CCn1c(=O)c2c(nc(CCc3cccc(C(F)(F)F)c3)n2C)n(CCCCP(=O)(O)O)c1=O [B-16, (4-(7-Methyl-2,6-dioxo-1-(prop-2-yn-1-yl)-8-(3-(trifluoromethyl)phenethyl)-1,2,6,7-tetrahydro-3H-purin-3-yl)butyl)phosphonic acid] | Emax at 0.1 µM [1, 7]: 100%; Emax at 1 µM [4, 6]: 100%
0.0935 ± 0.0054 | 128 | 0.000296 ± 3.3e-05 | 108 | 0.000501 ± 7.6e-05 | 0.00635 ± 0.00167 | 112 | 132 | C#CCn1c(=O)c2c(nc(CCc3ccccc3Br)n2C)n(CCCCP(=O)(O)O)c1=O [B-18, (4-(8-(2-Bromophenethyl)-7-methyl-2,6-dioxo-1-(prop-2-yn-1-yl)-1,2,6,7-tetrahydro-3H-purin-3-yl)butyl)phosphonic acid] | –
0.0259 ± 0.0079 | – | – | – | – | 0.00426 ± 0.00056 | 115 | 144 | C#CCn1c(=O)c2c(nc(CCc3ccccc3Br)n2CC)n(CCCCP(=O)(O)O)c1=O [B-19, (4-(8-(2-Bromophenethyl)-7-ethyl-2,6-dioxo-1-(prop-2-yn-1-yl)-1,2,6,7-tetrahydro-3H-purin-3-yl)butyl)phosphonic acid] | melting point: 192 to 195 °C
0.0329 ± 0.0075 | – | – | – | – | 0.00186 ± 0.00045 | 103 | 124 | C#CCn1c(=O)c2c(nc(CCc3ccccc3Br)n2CCO)n(CCCCP(=O)(O)O)c1=O [B-20, (4-(8-(2-Bromophenethyl)-7-(2-hydroxyethyl)-2,6-dioxo-1-(prop-2-yn-1-yl)-1,2,6,7-tetrahydro-3H-purin-3-yl)butyl)phosphonic acid] | melting point: 157 to 160 °C
0.0898 ± 0.0209 | – | – | – | – | 0.00202 ± 0.00062 | 109 | 163 | C#CCn1c(=O)c2c(nc(CCc3ccccc3Br)n2CC2CC2)n(CCCCP(=O)(O)O)c1=O [B-21, (4-(8-(2-Bromophenethyl)-7-(cyclopropylmethyl)-2,6-dioxo-1-(prop-2-yn-1-yl)-1,2,6,7-tetrahydro-3H-purin-3-yl)butyl)phosphonic acid] | melting point: 181 to 184 °C
13 ± 4.1 | 86 | 0.374 ± 0.111 | 98 | 0.238 ± 0.011 | 0.574 ± 0.179 | 107 | 97 | C#CCn1c(=O)c2c(nc(CCc3cccc(OC)c3)n2C)n(CCCOP(=O)(O)O)c1=O [H-1, 3-(8-(3-Methoxyphenethyl)-7-methyl-2,6-dioxo-1-(prop-2-yn-1-yl)-1,2,6,7-tetrahydro-3H-purin-3-yl)propyl dihydrogen phosphate, reference compound] | –
